Results reported in ChEMBL document CHEMBL1153350, “Synthesis of actin-depolymerizing compounds” (Bioorg Med Chem Lett, 2009).

Legend:
[1] = Cytotoxicity against human HeLaS3 cells; format: functional, cell-based; conditions: HeLa S3
[2] = Inhibition of F-actin depolymerization

| SMILES | IC50 [2] | IC50 [1] |
| --- | --- | --- |
| C/C=C/[C@@H](OC(=O)[C@H](C)N(C)C)[C@H](C)[C@H](OC(C)=O)[C@H](C)/C=C/N(C)C=O | 210 µM | > 10 µg/mL |
| CC(=O)O[C@@H]([C@@H](C)[C@@H](/C=C/CCc1ccccc1)OC(=O)[C@H](C)N(C)C)[C@H](C)/C=C/N(C)C=O | 47 µM | > 10 µg/mL |
| CC(=O)O[C@@H]([C@@H](C)[C@@H](/C=C/c1ccccc1)OC(=O)[C@H](C)N(C)C)[C@H](C)/C=C/N(C)C=O | 85 µM | > 10 µg/mL |

These reach a lower IC50 [2]. Values come first.

| IC50 [2] | SMILES | IC50 [1] |
| --- | --- | --- |
| 7.9 µM | CC(=O)O[C@@H]([C@@H](C)[C@@H](CC[C@H](C)[C@H](O)[C@H](C)[C@@H](O)CCO)OC(=O)[C@H](C)N(C)C)[C@H](C)/C=C/N(C)C=O | > 10 µg/mL |
| 21 µM | CC(=O)O[C@@H]([C@@H](C)[C@@H](/C=C/CCCCc1ccccc1)OC(=O)[C@H](C)N(C)C)[C@H](C)/C=C/N(C)C=O | > 10 µg/mL |
